Measurements as given in patent US11357779B2 (G1 Therapeutics, Inc., priority 2018, dated 2022).
Read-outs that look alike come from different tables or passages of the source.

Columns and labels:
clinical = conditions: human, in vivo
[1] = Pharmacokinetics of Compound I in healthy volunteers after a single dose of Form B of Compound II; format: in vivo, human; conditions: for AUC(0-inf) / Cmax / Tmax / half-life / Vd/F: human, oral; for Vd/F: read-out: Vz/F
Procedure: Table 84 provides the pharmacokinetic parameters of Compound I upon administration of a single dose of Form B of Compound II (48, 100, 200, 300, 400, or 600 mg) in healthy volunteers. Blood samples for analysis of Compound I were collected pre-dose and 0.25, 0.5, 1, 1.5, 2, 3, 4, 6, 8, 12, 24, 36, 48, 72, and 96 hours post-dose.

tumor = conditions: mice, single dosage of 100 mg/kg; cited from earlier work
[2] = Slurry conversion of impure Form B to pure Form B (small scale and scale-up, XRPD); format: physicochemical
Procedure: Approximately 16 small scale slurry experiments were carried out by varying the slurry concentration, temperature, HCl acid molar concentration, and content in the aqueous acetone mixtures as well as the water content. Slurries of impure Form B were performed in a given solvent system at targeted calculated concentration at ambient or elevated temperatures for various time/durations. The solids were isolated by vacuum filtration and submitted for XRPD analysis. The specific experimental conditions are detailed in Table 109 where solvent system ratios are by volume.
The slurries in acidic aqueous acetone mixtures at an elevated temperature of 50° C. […] FIG. 19 compares XRPD patterns of Sample 3 and 5 to the starting material of the experiments, impure Form B and to pure Form B. For comparison purposes, the samples were also compared to a second impure sample of Form B, (Impure Form B Sample 2 in FIG. 19). This second impure Form B contained larger amounts of the unknown Form than the impure Form B previously described in Example 8.
Several slurry experiments were performed in water:acetone solvent systems starting with impure Form B and varying the water:acetone ratio, slurry concentration, and time. Based on the initial slurry results, experiments in 1:2 (v/v) water:acetone at ambient temperature were performed with aliquots taken after 16 hours (Sample 6) and 20.5 hours (Sample 7). The slurry in this solvent system was conducted at a concentration of 100-125 mg/mL and ambient temperature. The XRPD patterns of the resulting materials were consistent with pure Form B (FIG. 20).
In an effort to improve the yield, water:acetone 1:3 (v/v) was used at 150 mg/mL concentration (Samples 13 and 14) however, the conversion was not completed even after 4 days (FIG. 21). Therefore, one experiment was performed using water:acetone 1:2 (v/v) slurry for 18 hours and then adding acetone to reach ratio water:acetone 1:4 (v/v) followed by slurry for 4 hours (Sample 12). The XRPD pattern of the resulting material was consistent with Form B, however, one of the undesired peaks reappeared shifted from 3.95 °2θ to 4.2 °2θ (FIG. 21).
The Julabo FP50 temperature control unit contained Julabo Thermal C10 fluid and the reactor temperature was measured with a K-type PTFE temperature probe. The experiments were carried out with Lara Control software version 2.3.5.0. The software tracked circulator temperature, vessel temperature, and stir rate, recording readings every tenth of a second throughout the experiment.
The reactor vessel was charged with the solids of impure Form B (58.86 g) in 471 mL of a water:acetone 1:2 (v/v) solvent system achieving 125 mg/mL slurry concentration (Samples 20-23). The resulting slurry was stirred at 30° C. for up to 43 hours with stirring speed of 400 rpm. The slurry was cooled to 25° C. over 30 minutes, discharged from the reactor vessel, and immediately slowly filtered (drop by drop) to […]. A water:acetone 1:2 (v/v) wash solution was prepared in advance and used to wash the filter cake in one portion.
Pulls were taken usually at the 20th hour and if needed at later time points (Table 110).
The conversion of impure Form B to pure Form B was conducted in water:acetone 1:2 (v/v) slurry at 125 mg/mL concentration and 30° C. for 43 hours. Very slow filtration was observed and the wet cake was air-dried at ambient conditions for 3.5 hours followed by vacuum drying at ambient temperature and 15 in Hg for 0.5 hour and then at ˜27 in Hg for 3.5 hours yielding 49.26 g ([…]).

[3] = Dynamic vapor sorption (moisture sorption) experiment; conditions: for stability in the moisture sorption experiment (XRPD of dried sample): after DVS
Procedure: Dynamic vapor sorption experiments were performed on Form A, Form B, and Form D. Table 103 provides the results of the DVS experiment.

[4] = blood, single 100 mg dose of Form B of Compound II
[5] = blood, single 200 mg dose of Form B of Compound II
[6] = blood, single 300 mg dose of Form B of Compound II
[7] = plasma, single 48 mg dose of Form B of Compound II
[8] = plasma, single 400 mg dose of Form B of Compound II
[9] = plasma, single 600 mg dose of Form B of Compound II

`CC(C)N1CCN(c2ccc(Nc3ncc4cc5n(c4n3)C3(CCCCC3)CNC5=O)nc2)CC1` [Compound I, 2′-((5-(4-isopropylpiperazin-1-yl)pyridin-2-yl)amino)-7′,8′-dihydro-6′H-spiro[cyclohexane-1,9′-pyrazino[1′,2′:1,5]pyrrolo[2,3-d]pyrimidin]-6′-one] showed an AUC(0-t) (clinical; 200 mg) of 229 ng·h/mL, an AUC(0-t) (clinical; 300 mg) of 592 ng·h/mL and an AUC(0-t) (clinical; 400 mg) of 278 ng·h/mL. The AUC(0-t) (clinical; 500 mg) was 607 ng·h/mL, the “(AUC0-24,ss)/ANC” value (clinical; 650 mg) was 0.89 and the AUC(0-t) (clinical; 650 mg) was 956 ng·h/mL. For the same molecule, the AUC(0-inf) [1, 4] was 60.2 ng·h/mL, the Cmax [1, 4] was 9.23 ng/mL and the Tmax [1, 4] was 2 h. It also gave a half-life [1, 4] of 4.71 h, a Vd/F [1, 4] of 11300 L and an AUC(0-inf) [1, 5] of 275 ng·h/mL. For the same molecule, the Cmax [1, 5] was 29.3 ng/mL, the Tmax [1, 5] was 3 h and the half-life [1, 5] was 13.8 h. For the same molecule, the Vd/F [1, 5] was 14500 L, the AUC(0-inf) [1, 6] was 349 ng·h/mL and the Cmax [1, 6] was 27 ng/mL. For the same molecule, the Tmax [1, 6] was 3.5 h, the half-life [1, 6] was 15.4 h and the Vd/F [1, 6] was 19100 L. It also gave a Tmax ([1]; blood, single 400 mg dose of Form B of Compound II) of 5 h, an AUC(0-inf) [1, 7] of 20.4 ng·h/mL and a Cmax [1, 7] of 3.65 ng/mL. It also gave a Tmax [1, 7] of 2 h, a half-life [1, 7] of 3.07 h and a Vd/F [1, 7] of 10400 L. It also gave an AUC(0-inf) [1, 8] of 432 ng·h/mL, a Cmax [1, 8] of 26.3 ng/mL and a half-life [1, 8] of 14.9 h. It also gave a Vd/F [1, 8] of 19900 L, an AUC(0-inf) [1, 9] of 886 ng·h/mL and a Cmax [1, 9] of 59 ng/mL. For the same molecule, the Tmax [1, 9] was 6 h, the half-life [1, 9] was 17.2 h and the Vd/F [1, 9] was 16800 L. The CL/F ([1]; single 48 mg dose of Form B of Compound II) was 2354 L/h, the CL/F ([1]; single 100 mg dose of Form B of Compound II) was 1660 L/h and the CL/F ([1]; single 200 mg dose of Form B of Compound II) was 727 L/h. It also gave a CL/F ([1]; single 300 mg dose of Form B of Compound II) of 861 L/h, a CL/F ([1]; single 400 mg dose of Form B of Compound II) of 926 L/h and a CL/F ([1]; single 600 mg dose of Form B of Compound II) of 677 L/h. The distribution to tumor (tumor) was “concentrates in the tumor”.
For `CC(C)N1CCN(c2ccc(Nc3ncc4cc5n(c4n3)C3(CCCCC3)CNC5=O)nc2)CC1` [Compound II, 2′-((5-(4-isopropylpiperazin-1-yl)pyridin-2-yl)amino)-7′,8′-dihydro-6′H-spiro[cyclohexane-1,9′-pyrazino[1′,2′:1,5]pyrrolo[2,3-d]pyrimidin]-6′-one], the “XRPD Result” value ([2]; 125 mg/mL Slurry, 30° C., 20 h) was “Form B + small broad”, the “XRPD Result” value ([2]; 125 mg/mL Slurry, 30° C., 24 h) was “B + broad peaks at 4.2°” and the “XRPD Result” value ([2]; 125 mg/mL Slurry, 30° C., 42 h) was “Form B”. For the same molecule, the “XRPD Result” value ([2]; 125 mg/mL Slurry, 30° C., 43 h VF, washed with 50 mL of H2O:acetone 1:2, Air-dried for 3.5 h) was “Form B”, the “XRPD Result” value ([2]; Vacuum drying, 22° C., 0.5 h, 15 in Hg, 22° C. 1.5 h, 27-28 in Hg) was “Form B” and the “XRPD Result” value ([2]; Vacuum drying, 22° C., 2.0 h, 27 in Hg) was “Form B”. The “stability in the moisture sorption experiment (XRPD of dried sample)” value ([3]; dried at 60° C. and 0% RH) was “remained in Form B”.
For `CC(C)N1CCN(c2ccc(Nc3ncc4cc5n(c4n3)C3(CCCCC3)CNC5=O)nc2)CC1` [Form B], the moisture adsorbed ([3]; 60% RH) was 5.8 wt %, the moisture adsorbed ([3]; 90% RH) was 5.9 wt % and the “% wt change at 60% RH” value ([3]; DVS, 60% RH) was 5.8 % wt. For the same molecule, the “% wt change at 90% RH” value ([3]; DVS, 90% RH) was 5.9 % wt, the “stability in the moisture sorption experiment (XRPD of dried sample)” value ([3]; dried at 60° C. and 0% RH) was “stable” and the “XRPD (post DVS)” value ([3]; after moisture sorption experiment, dried at 60° C. and 0% RH) was “Form B”.
